In the assay the target is T1, mouse VISTA (mVISTA) (Mus musculus, UniProt Q9D659).
T1 construct: expressed in transfected cells; host or cells: Human embryonic kidney 293T cells
T1 sequence (Q9D659 33-308): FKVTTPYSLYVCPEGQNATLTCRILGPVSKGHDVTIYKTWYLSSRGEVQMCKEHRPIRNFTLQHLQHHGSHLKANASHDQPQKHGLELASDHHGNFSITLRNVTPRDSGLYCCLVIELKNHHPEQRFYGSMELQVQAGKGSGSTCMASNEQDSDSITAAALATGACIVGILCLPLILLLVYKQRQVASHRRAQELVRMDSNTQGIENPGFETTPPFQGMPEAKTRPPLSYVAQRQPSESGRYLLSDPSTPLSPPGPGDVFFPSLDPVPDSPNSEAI
Put plainly: Cell-Based Binding High-Content Assay For mVISTA (HC CBA mVISTA). The method, boiled down:
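Competition of compound with a biotinylated peptide (final 2 nM, 30 min at RT) for binding to mVISTA on 293T cells, run under no-wash or wash (1 h compound preincubation then removal) formats. Readout by Alexa 647–streptavidin imaging on a high-content platform; four-parameter logistic fit gave IC50.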

Setting [1] is: 293T cells expressing mouse VISTA, competition with biotinylated peptide (2 nM), read-out: HC CBA mVISTA IC50.
Where [2] appears, read: cell-based binding high-content assay, mVISTA, read-out: HC CBA miPr ISTA IC50.
Setting [3] is: cell-based binding high-content assay, mVISTA, read-out: HC CBA miPrISTA IC50.

Among the data in patent US20240218022A1, “ANTI-VISTA MACROCYCLIC PEPTIDES AND COMPOSITIONS” (BRISTOL-MYERS SQUIBB COMPANY, priority 2022, published 2024) are IC50 values, retold here.

Read-outs that look alike come from different tables or passages of the source. Starred links: 1 amine or outer side, 2 acyl side, 3 side chain; linkers in the order of their positions; H or OH if unused. Positions of bridges follow the written chain, without caps; N, C: chain ends. Non-standard residues stand in square brackets, D forms with d. Residues, ends and D or L forms follow the SMILES beside them. ξ: configuration not given here. Phe(4-CONH2) = NC(=O)c1ccc(C[C@H](N)C(=O)O)cc1; N(3-phenylpropyl)Gly = O=C(O)CNCCCc1ccccc1; γGlu = O=C(O)[C@H](CCC(=O)[*:2])N[*:1]; 2Nal = N[C@@H](Cc1ccc2ccccc2c1)C(=O)O; βAsp = O=C(O)[C@H](CC(=O)[*:2])N[*:1]; NMeThr(3ξ) = CN[C@H](C(=O)O)C(C)O; NMeD = CN[C@@H](CC(=O)O)C(=O)O; Ahp(2) = CCCCC[C@H](N)C(=O)O; NMeNle = CCCC[C@H](NC)C(=O)O; Tle = CC(C)(C)[C@H](N)C(=O)O; NHexGly = CCCCCCNCC(=O)O; Nle = CCCC[C@H](N)C(=O)O; Orn = NCCC[C@H](N)C(=O)O; Aun = NCCCCCCCCCCC(=O)O; AEEA = NCCOCCOCC(=O)O

Regarding `CCCCCCN1CC(=O)N[C@@H](Cc2ccc(O)cc2)C(=O)N[C@@H](CCCCC)C(=O)N[C@@H](CC(N)=O)C(=O)N[C@@H](CCCCN)C(=O)N[C@@H](CC(C)C)C(=O)N[C@@H](CCCCC)C(=O)N2CCC[C@H]2C(=O)N[C@@H](C(C)C)C(=O)N[C@@H](CO)C(=O)N[C@H](C(=O)NCC(N)=O)CSCC(=O)N[C@@H](Cc2ccccc2)C(=O)N[C@@H](Cc2ccc(O)cc2)C(=O)N[C@@H](CC(=O)O)C1=O` [Example 1035] ({CH2CO}-FYD[NHexGly]Y[Ahp(2)]NKL[Ahp(2)]PVSCG-NH2; thioether N-14), the IC50 under setting [1] was found to be 30.4 nM. Take `CCCCCCN1CC(=O)N[C@@H](Cc2ccc(O)cc2)C(=O)N[C@@H](CCCC)C(=O)N[C@@H](CC(N)=O)C(=O)N[C@@H](CCCNC(=N)N)C(=O)N(C)[C@@H](CC(=O)O)C(=O)N[C@@H](CCCCC)C(=O)N2CCC[C@H]2C(=O)N[C@@H](C(C)C)C(=O)N[C@@H](CC(=O)O)C(=O)N[C@H](C(=O)NCC(=O)O)CSCC(=O)N[C@@H](Cc2ccc3ccccc3c2)C(=O)N[C@@H](Cc2c[nH]c3ccccc23)C(=O)N[C@@H](CC(=O)O)C1=O` [compound 1238] ({CH2CO}-[2Nal]WD[NHexGly]Y[Nle]NR[NMeD][Ahp(2)]PVDCG-OH; thioether N-14): the IC50 (cell-based binding high-content assay, mVISTA, the 15th table, read-out: HC CBA mVISTA IC50) amounted to 25.2 nM. For the molecule `CCCCCCN1CC(=O)N[C@@H](Cc2ccc(O)cc2)C(=O)N[C@@H](CCCC)C(=O)N[C@@H](CC(=O)O)C(=O)N[C@@H](CCCNC(=N)N)C(=O)N[C@@H](CC(C)C)C(=O)N[C@@H](CCCCC)C(=O)N2CCC[C@H]2C(=O)N[C@@H](C(C)C)C(=O)N[C@@H](CC(N)=O)C(=O)N[C@H](C(=O)NCC(=O)NCCOCCOCC(=O)N[C@@H](CC(=O)O)C(=O)NCCOCCOCC(=O)NCCCCCCCCCCC(=O)O)CSCC(=O)N[C@@H](Cc2ccccc2)C(=O)N[C@@H](Cc2ccc(O)cc2)C(=O)N[C@@H](CC(=O)O)C1=O` [compound 2005] ({CH2CO}-FYD[NHexGly]Y[Nle]DRL[Ahp(2)]PVNCG[AEEA]D[AEEA][Aun]-OH; thioether N-14), under setting [2], the concentration for half-maximal inhibition (IC50) was 10.5 nM. For the molecule `CCCCCCN1CC(=O)N[C@@H](Cc2ccc(O)cc2)C(=O)N[C@@H](CCCCC)C(=O)N[C@@H](CC(=O)O)C(=O)N[C@@H](CCCNC(=N)N)C(=O)N[C@@H](CC(C)C)C(=O)N[C@@H](CCCCC)C(=O)N2CCC[C@H]2C(=O)N[C@@H](C(C)C)C(=O)N[C@@H](CC(=O)O)C(=O)N[C@H](C(=O)NCC(N)=O)CSCC(=O)N[C@@H](Cc2ccccc2)C(=O)N[C@@H](Cc2ccc(O)cc2)C(=O)N[C@@H](CC(=O)O)C1=O` [Example 1015] ({CH2CO}-FYD[NHexGly]Y[Ahp(2)]DRL[Ahp(2)]PVDCG-NH2; thioether N-14), the 50% inhibitory concentration (IC50) under setting [1] stood at 8.7 nM. Consider `CCCCCCN1CC(=O)N[C@@H](Cc2ccc(O)cc2)C(=O)N[C@@H](CC(C)C)C(=O)N[C@@H](CC(N)=O)C(=O)N[C@@H](CCCNC(=N)N)C(=O)N(C)[C@@H](CCCC)C(=O)N[C@@H](CCCCC)C(=O)N2CCC[C@H]2C(=O)N[C@@H](C(C)(C)C)C(=O)N[C@@H](CO)C(=O)N[C@H](C(=O)N[C@@H](CC(=O)NCCOCCOCC(=O)N[C@@H](CC(=O)O)C(=O)NCCOCCOCC(=O)NCCCCCCCCCCC(=O)O)C(=O)O)CSCC(=O)N[C@@H](Cc2ccc(C(N)=O)cc2)C(=O)N[C@@H](Cc2ccc(O)cc2)C(=O)N[C@@H](CC(=O)O)C1=O` [compound 2087] ({CH2CO}-[Phe(4-CONH2)]YD[NHexGly]YLNR[NMeNle][Ahp(2)]P[Tle]SC[βAsp][AEEA]D[AEEA][Aun]-OH; thioether N-14), for which the 50% inhibitory concentration (IC50) under setting [3] was determined as 28.8 nM. With `CCCCC[C@@H]1NC(=O)[C@H](CCCC)N(C)C(=O)[C@H](CCCNC(=N)N)NC(=O)[C@H](CC(N)=O)NC(=O)[C@H](CC(C)C)NC(=O)[C@H](Cc2ccc(O)cc2)NC(=O)CN(CCCc2ccccc2)C(=O)[C@H](CC(=O)O)NC(=O)[C@H](Cc2ccc(O)cc2)NC(=O)[C@H](Cc2ccccc2)NC(=O)CSC[C@@H](C(=O)NCC(N)=O)NC(=O)[C@H](CO)NC(=O)[C@H](C(C)(C)C)NC(=O)[C@@H]2CCCN2C1=O` [Example 1087] ({CH2CO}-FYD[N(3-phenylpropyl)Gly]YLNR[NMeNle][Ahp(2)]P[Tle]SCG-NH2; thioether N-14), under setting [1], the half-inhibitory concentration (IC50) was found to be 34.7 nM. With `CCCCCCN1CC(=O)N[C@@H](Cc2ccc(O)cc2)C(=O)N[C@@H](CCCCC)C(=O)N[C@@H](CC(N)=O)C(=O)N[C@@H](CCCNC(=N)N)C(=O)N(C)[C@@H](CCCC)C(=O)N[C@@H](CCCCC)C(=O)N2CCC[C@H]2C(=O)N[C@@H](C(C)C)C(=O)N[C@@H](CC(=O)O)C(=O)N[C@H](C(=O)N[C@@H](CO)C(N)=O)CSCC(=O)N[C@@H](Cc2ccccc2)C(=O)N[C@@H](Cc2c[nH]c3ccccc23)C(=O)N[C@@H](CC(=O)O)C1=O` [Example 1405] ({CH2CO}-FWD[NHexGly]Y[Ahp(2)]NR[NMeNle][Ahp(2)]PVDCS-NH2; thioether N-14), the IC50 (read-out: HC CBA mVISTA IC50) was determined as 5 nM. `CCCCCCN1CC(=O)N[C@@H](Cc2ccc(O)cc2)C(=O)N[C@@H](CCCC)C(=O)N[C@@H](CC(=O)O)C(=O)N[C@@H](CCCNC(=N)N)C(=O)N(C)[C@@H](CCCC)C(=O)N[C@@H](CCCCC)C(=O)N2CCC[C@H]2C(=O)N[C@@H](C(C)C)C(=O)N[C@@H](CC(=O)O)C(=O)N[C@H](C(=O)N[C@@H](CO)C(N)=O)CSCC(=O)N[C@@H](Cc2ccccc2)C(=O)N[C@@H](Cc2c[nH]c3ccccc23)C(=O)N[C@@H](CC(=O)O)C1=O` [Example 1407] ({CH2CO}-FWD[NHexGly]Y[Nle]DR[NMeNle][Ahp(2)]PVDCS-NH2; thioether N-14): the IC50 (read-out: HC CBA mVISTA IC50) stood at 34.5 nM. As to `CCCCCCN1CC(=O)N[C@@H](Cc2ccc(O)cc2)C(=O)N[C@@H](CC(C)C)C(=O)N[C@@H](CC(N)=O)C(=O)N[C@@H](CCCNC(=N)N)C(=O)N[C@@H](CC(C)C)C(=O)N[C@@H](CCCCC)C(=O)N2CCC[C@H]2C(=O)N[C@@H](C(C)C)C(=O)N[C@@H](C(C)C)C(=O)N[C@H](C(=O)NCCOCCOCC(=O)N[C@@H](CC(=O)O)C(=O)NCCOCCOCC(=O)NCCCCCCCCCCC(=O)O)CSCC(=O)N[C@@H](Cc2ccccc2)C(=O)N[C@@H](Cc2ccc(O)cc2)C(=O)N[C@@H](CC(=O)O)C1=O` (stereo in doubt) [compound 2291], the 50% inhibitory concentration (IC50) (cell-based binding high-content assay, read-out: HC CBA miPrISTA IC50) came out at 17.4 nM. On to `CCCCCCN1CC(=O)N[C@@H](Cc2ccc(O)cc2)C(=O)N[C@@H](CC(C)C)C(=O)N[C@@H](CC(N)=O)C(=O)N[C@@H](CCCNC(=N)N)C(=O)N(C)[C@@H](C(C)O)C(=O)N[C@@H](CCCCC)C(=O)N2CCC[C@H]2C(=O)N[C@@H](C(C)(C)C)C(=O)N[C@@H](CO)C(=O)N[C@H](C(=O)N[C@@H](CC(=O)NCCOCCOCC(=O)N[C@@H](CC(=O)O)C(=O)NCCOCCOCC(=O)NCCCCCCCCCCC(=O)O)C(=O)O)CSCC(=O)N[C@@H](Cc2ccccc2)C(=O)N[C@@H](Cc2ccc(O)cc2)C(=O)N[C@@H](CC(=O)O)C1=O` (stereo partly shown) [compound 2036] ({CH2CO}-FYD[NHexGly]YLNR[NMeThr(3ξ)][Ahp(2)]P[Tle]SC[βAsp][AEEA]D[AEEA][Aun]-OH; thioether N-14), for which, under setting [2], the 50% inhibitory concentration (IC50) turned out to be 49 nM. Regarding `CCCCCCN1CC(=O)N[C@@H](Cc2ccc(O)cc2)C(=O)N[C@@H](CCCC)C(=O)N[C@@H](CC(N)=O)C(=O)N[C@@H](CCCNC(=N)N)C(=O)N(C)[C@@H](CCCC)C(=O)N[C@@H](CCCCC)C(=O)N2CCC[C@H]2C(=O)N[C@@H](C(C)(C)C)C(=O)N[C@@H](CO)C(=O)N[C@H](C(=O)NCCOCCOCC(=O)N[C@@H](CCC(=O)NCCOCCOCC(=O)NCCCCCCCCCCC(=O)O)C(=O)O)CSCC(=O)N[C@@H](Cc2ccccc2)C(=O)N[C@@H](Cc2ccc(O)cc2)C(=O)N[C@@H](CC(=O)O)C1=O` [compound 2224] ({CH2CO}-FYD[NHexGly]Y[Nle]NR[NMeNle][Ahp(2)]P[Tle]SC[AEEA][γGlu][AEEA][Aun]-OH; thioether N-14), the IC50 (read-out: HC CBA mVISTA IC50) was 18.6 nM. On to `CCCCCCN1CC(=O)N[C@@H](Cc2ccc(O)cc2)C(=O)N[C@@H](C)C(=O)N[C@@H](CC(N)=O)C(=O)N[C@@H](CCCN)C(=O)N(C)[C@@H](CCCC)C(=O)N[C@@H](CCCCC)C(=O)N2CCC[C@H]2C(=O)N[C@@H](C(C)(C)C)C(=O)N[C@@H](CC(=O)O)C(=O)N[C@H](C(=O)N[C@@H](CC(=O)NCCOCCOCC(=O)N[C@@H](CC(=O)O)C(=O)NCCOCCOCC(=O)NCCCCCCCCCCC(=O)O)C(=O)O)CSCC(=O)N[C@@H](Cc2ccccc2)C(=O)N[C@@H](Cc2ccc(O)cc2)C(=O)N[C@@H](CC(=O)O)C1=O` [compound 2095] ({CH2CO}-FYD[NHexGly]YAN[Orn][NMeNle][Ahp(2)]P[Tle]DC[βAsp][AEEA]D[AEEA][Aun]-OH; thioether N-14), for which the IC50 under setting [3] worked out at 50.1 nM. As for `CCCCCCN1CC(=O)N[C@@H](Cc2ccc(O)cc2)C(=O)N[C@@H](CCCC)C(=O)N[C@@H](CC(N)=O)C(=O)N[C@@H](CCCNC(=N)N)C(=O)N(C)[C@@H](CCCC)C(=O)N[C@@H](CCCCC)C(=O)N2CCC[C@H]2C(=O)N[C@@H](C(C)(C)C)C(=O)N[C@@H](CO)C(=O)N[C@H](C(=O)N[C@@H](CC(=O)O)C(N)=O)CSCC(=O)N[C@@H](Cc2ccccc2)C(=O)N[C@@H](Cc2c[nH]c3ccccc23)C(=O)N[C@@H](CC(=O)O)C1=O` [Example 1378] ({CH2CO}-FWD[NHexGly]Y[Nle]NR[NMeNle][Ahp(2)]P[Tle]SCD-NH2; thioether N-14), the IC50 (read-out: HC CBA mVISTA IC50) was 41.3 nM.

As usually defined, the IC50 is the concentration at which inhibition is half-maximal.
